The values below come from patent US7642400B2, “Protein kinase C iota” (Mayo Foundation for Medical Education and Research, priority 2004, dated 2010).

The test concerns the target T1, interaction of PKCι polypeptides with PAR6 polypeptides (Homo sapiens, UniProt P41743).
T1 construct: amino acids 1-113 or a full-length PKCι polypeptide; 6xHis; made in house
T1 sequence (P41743 10-122): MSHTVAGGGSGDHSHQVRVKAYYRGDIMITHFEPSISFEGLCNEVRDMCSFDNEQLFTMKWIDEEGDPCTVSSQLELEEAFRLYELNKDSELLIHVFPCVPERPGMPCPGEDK
Briefly: Secondary screen: PYN bound to plate-immobilised biotin-tagged PAR6. The test is classed as binding. The note with it: for dose-response analysis using the secondary screening assay: increasing amounts, e.g. 0, 0.1, 1, 10, 100, and 100 μM. As for the experimental part: Multiple test compounds that were classified as hits in the primary screen as well as additional related compounds were evaluated in a secondary screen designed as follows. Briefly, a 96-well microtiter plate coated with streptavidin (Nunc #436014) was incubated for 2-4 hours at room temperature with 100 μl of a 20-30 μg/ml solution of biotin-tagged PAR6 (whole polypeptide) in phosphate-buffered saline containing Tween-20 (PBST). Plates were washed twice with PBST, then once with incubation buffer (50 mM Tris, pH 8.0; 135 mM NaCl; 10% glycerol; 0.002% EDTA). Incubation buffer (50 μl) was added to each well. The compounds to be tested were added (10 μl) followed by PYN (50 μl) diluted in incubation buffer to an approximate concentration of 4000-5000 relative fluorescent units per 50 μl. Plates were incubated overnight at 4° C. Plates were washed twice with incubation buffer, after which 50 μl incubation buffer was added to retain moisture in the wells. The amount of PYN bound on the plates was determined by measuring yellow fluorescence (532/526) in a Typhoon imager. Fluorescence was quantitated by Softmax Pro software.
A dose-response analysis was performed using the secondary screening assay and increasing amounts (e.g., 0, 0.1, 1, 10, 100, and […]) of gossypol, hexestrol, thimerosal, ebselen, ATG, ATM, ellagic acid, cisplatin, apomorphine, or phenylmercuric acetate.

The mark [1] stands for this setting: amount of PYN bound to biotin-tagged PAR6 plates.

Where a name gives a salt, the structure may show the parent alone. Read-outs that look alike come from different tables or passages of the source.

In the case of `C[n+]1c2cc(N)ccc2cc2ccc(N)cc21.[Cl-]` [Acriflavinium hydrochloride], the “Secondary Screen” value under setting [1] is “No effect”. Same read-out and setting: in the case of `N=C(N)NC(=O)c1nc(Cl)c(N)nc1N` [Amiloride] it was “No effect”; in that of `CCN(CC)Cc1cc(Nc2ccnc3cc(Cl)ccc23)ccc1O` [Amodiaquine], “No effect”. The same measure, in the same setting: the result for `CCCc1ncc(C[n+]2ccccc2C)c(N)n1` [Amprolium] reads “No effect”.

In the case of `CN1CCc2cccc3c2[C@H]1Cc1ccc(O)c(O)c1-3` [Apomorphine], the “dose-response analysis using the secondary screening assay” value (“dose-response analysis” below) was “dose-dependent response was detected”. Also, the “Secondary Screen” value under setting [1] is “Confirmed”. The “Secondary Screen” value (amount of PYN bound to biotin-tagged PAR6 plates, listed as apomorphine) is “confirmed”. On to `COc1ccc(C(Cl)=C(c2ccc(OC)cc2)c2ccc(OC)cc2)cc1` [Chlorotrianisene], for which the “Secondary Screen” value under setting [1] is “No effect (related compound”.

Consider `Oc1cc(O)c2c(c1)O[C@H](c1ccc(O)c(O)c1)[C@@H](O)C2` [Cianidanol], for which the “Secondary Screen” value under setting [1] was “No effect (related compound”. On to `N.N.[Cl][Pt][Cl]` [Cisplatin], for which the “dose-response analysis” value is given as “dose-dependent response was detected”. Under setting [1], the “Secondary Screen” value is “Confirmed”. For the setting “amount of PYN bound to biotin-tagged PAR6 plates, listed as cisplatin”, the “Secondary Screen” value is on record as “confirmed”. `Cc1cc(N)c2ccccc2[n+]1CCCCCCCCCC[n+]1c(C)cc(N)c2ccccc21` [Dequalinium chloride]: the “Secondary Screen” value under setting [1] is reported as “No effect”. With `O=c1oc2c(O)c(O)cc3c(=O)oc4c(O)c(O)cc1c4c23` [Ellagic acid], the “dose-response analysis” value is on record as “dose-dependent response was detected”. Moreover, the “Secondary Screen” value under setting [1] is on record as “Confirmed”. Further, the “Secondary Screen” value (amount of PYN bound to biotin-tagged PAR6 plates, listed as ellagic acid) is on record as “confirmed”. Take `CNC[C@H](O)c1ccc(O)c(O)c1` [Epinephrine bitartrate]: under setting [1], the “Secondary Screen” value is “No effect”. On the same count and under the same terms, the result for `CCC(=O)O[C@H]1[C@H](O[C@@H]2[C@@H](C)[C@H](O[C@H]3C[C@@](C)(OC)[C@@H](O)[C@H](C)O3)[C@@H](C)C(=O)O[C@H](CC)[C@@](C)(O)[C@H](O)[C@@H](C)C(=O)[C@H](C)C[C@@]2(C)O)O[C@H](C)C[C@@H]1N(C)C` [Erythromycin propionate lauryl sulfate] reads “No effect”.

For `C[C@]12CC[C@@H](O)C[C@H]1CC[C@@H]1[C@@H]2CC[C@]2(C)C(=O)CC[C@@H]12` [Etiocholanolone], the “Secondary Screen” value is “No effect”.

In the case of `Nc1nc2ncc(CNc3ccc(C(=O)N[C@@H](CCC(=O)O)C(=O)O)cc3)nc2c(=O)[nH]1` [Folic acid], the “Secondary Screen” value under setting [1] was “No effect”. The same measure, in the same setting: the result for `O=C1OCCN1/N=C/c1ccc([N+](=O)[O-])o1` [Furazolidone] reads “No effect”. As to `O=C(O)c1cc(O)ccc1O` [Gentisic acid], the “Secondary Screen” value under setting [1] was “No effect”. As to `O=C(OCC(O)CO)c1ccccc1Nc1ccnc2cc(Cl)ccc12` (stereo not drawn) [Glafenine], under setting [1], the “Secondary Screen” value is “No effect”.

In the case of `COc1ccc2c(c1OC)C(=O)O[C@@H]2[C@H]1c2cc3c(cc2CCN1C)OCO3` [Hydrastine], the “Secondary Screen” value under setting [1] is listed as “No effect”. Same read-out and setting: the result for `O=C(O)c1cc2ccccc2c(Cc2c(O)c(C(=O)O)cc3ccccc23)c1O.OCCOCCN1CCN(C(c2ccccc2)c2ccc(Cl)cc2)CC1` [Hyydroxyzine pamoate] reads “No effect”; that for `CC(C)NCC(O)c1ccc(O)c(O)c1` (stereo not drawn) [Isoproterenol hydrochloride], “No effect”. Still for that read-out and setting: in the case of `CC(=O)/N=c1/sc(S(N)(=O)=O)nn1C` [Methazolamide] it was “No effect”; in that of `CC[C@@H](CO)NC(=O)[C@@H]1C=C2c3cccc4[nH]cc(c34)C[C@H]2N(C)C1` [Methylergonovine], “No effect”; in that of `CC[C@@]1([C@@H]2O[C@@H]([C@H]3O[C@@](O)(CO)[C@H](C)C[C@@H]3C)C[C@@H]2C)CC[C@H]([C@]2(C)CC[C@]3(C[C@H](O)[C@@H](C)[C@@H]([C@@H](C)[C@@H](OC)[C@H](C)C(=O)O)O3)O2)O1` [Monensin, sodium], “No effect”. On the same count and under the same terms, in the case of `COc1c(C)c2c(c(O)c1C/C=C(\C)CCC(=O)O)C(=O)OC2` [Mycophenolic acid] it was “No effect”.

`C[C@@H]1O[C@@H](O[C@H]2[C@H](Oc3cc(O)c4c(c3)O[C@H](c3ccc(O)cc3)CC4=O)O[C@H](CO)[C@@H](O)[C@@H]2O)[C@H](O)[C@H](O)[C@H]1O` [Naringin]: the “Secondary Screen” value under setting [1] is given as “No effect”.

`Nc1ccc(/N=N/c2ccccc2)c(N)n1` [Phenazopyridine]: the “Secondary Screen” value under setting [1] is given as “No effect”.

Regarding `CC(=O)[O-].[Hg+][c]1ccccc1` [Phenylmercuric acetate], the “dose-response analysis” value is “dose-dependent response was detected”. The “Secondary Screen” value (amount of PYN bound to biotin-tagged PAR6 plates, acetate) is listed as “Confirmed”. In addition, the “Secondary Screen” value (amount of PYN bound to biotin-tagged PAR6 plates, listed as phenylmercuric acetate, acetate) was “confirmed”. As for `COc1cc(NC(C)CCCN)c2ncccc2c1` (stereo not drawn) [Primaquine phosphate], the “Secondary Screen” value under setting [1] was “No effect”. As for `CC(C)[N+](C)(CCOC(=O)C1c2ccccc2Oc2ccccc21)C(C)C` [Propantheline bromide], under setting [1], the “Secondary Screen” value is on record as “No effect”. Turning to `CN1CCCN=C1/C=C/c1cccs1` [Pyrantel pamoate], the “Secondary Screen” value is on record as “Confirmed” under setting [1] and “confirmed” (amount of PYN bound to biotin-tagged PAR6 plates, listed as pyrantel pamoate). With `O=C1C=CC(=C(c2ccc(O)cc2)c2ccc(O)cc2)C=C1` [Rosolic acid], the “Secondary Screen” value under setting [1] is listed as “No effect”. For `CC1=C(CC(=O)O)c2cc(F)ccc2/C1=C\c1ccc([S+](C)[O-])cc1` (stereo not drawn) [Sulindac], under setting [1], the “Secondary Screen” value is given as “No effect”. Turning to `C[CH2][Hg][S]c1ccccc1C(=O)[O-].[Na+]` [Thimerosal], the “dose-response analysis” value is listed as “dose-dependent response was detected”. The “Secondary Screen” value under setting [1] is on record as “Confirmed”. The “Secondary Screen” value (amount of PYN bound to biotin-tagged PAR6 plates, listed as thimerosal) is “confirmed”. Take `CC1=C(/C=C/C(C)=C/C=C/C(C)=C/C(=O)O)C(C)(C)CCC1` [Tretinon]: under setting [1], the “Secondary Screen” value was “No effect”. On the same count and under the same terms, in the case of `CN(C)CCCN1c2ccccc2Sc2ccc(C(F)(F)F)cc21` [Triflupromazine] it was “No effect”. Regarding `C[C@]12CC[C@@H]3c4ccc(O)cc4CC[C@H]3[C@@H]1CC[C@@H]2O` [b-estradiol], the “Secondary Screen” value under setting [1] was “had no effect)”. Same read-out and setting: in the case of `CC1=C(C(=O)O)N2C(=O)[C@@H](NC(=O)[C@H](N)c3ccc(O)cc3)[C@H]2SC1` [cefadroxil] it was “had no effect)”; in that of `[H]/N=C(\N/C(=N/[H])NCCCCCCNC(=N)NC(=N)Nc1ccc(Cl)cc1)Nc1ccc(Cl)cc1` [chlorhexidine], “No effect”; in that of `O=C(CCCN1CC=C(n2c(=O)[nH]c3ccccc32)CC1)c1ccc(F)cc1` [droperidol], “droperidol had no effect)”. Same read-out and setting: the result for `CCn1cc(C(=O)O)c(=O)c2cc(F)c(N3CCNCC3)nc21` [enoxacin] reads “lomefloxacin had no effect)”. On the same count and under the same terms, in the case of `COc1ccc([C@@H]2CC(=O)c3c(O)cc(O[C@@H]4O[C@H](CO[C@@H]5O[C@@H](C)[C@H](O)[C@@H](O)[C@H]5O)[C@@H](O)[C@H](O)[C@H]4O)cc3O2)cc1O` [hespiridin] it was “hespiridin had no effect)”. For `CC[C@H](c1ccc(O)cc1)[C@@H](CC)c1ccc(O)cc1` [hexestrol], the “dose-response analysis” value is given as “dose-dependent response was detected”. Also, under setting [1], the “Secondary Screen” value was “hexestrol was confirmed)”.
